In US20140309296A1, “BUDIODARONE FORMULATIONS” (Armetheon, Inc., priority 2013, published 2014):
“And” between values parts separate entries of the source, which are not always exact repeats. Equal values may be shown once. Read-outs that look alike come from different tables or passages of the source.

Legend:
[1] = Solubility of budiodarone tartrate and benzyl alcohol in solvents of different ionic strengths (Example 4); format: physicochemical; conditions: 5/1 benzyl alcohol, nominal 25 mg/ml, 1 hour
Procedure: To find out, five vials, each one containing budiodarone tartrate (200 mg, 0.234 mmoles) and benzyl alcohol (122 μl, 1.173 mmoles) were prepared. The molar ratio was therefore 5/1. To each of these vials was added 4 ml of water and the vials were vortexed, resulting in clear solutions containing 50 mg/ml of budiodarone tartrate and benzyl alcohol (molar ratio of 5/1). Then, 4 ml of one of the following solvents was added: 30 mM acetate buffer pH 5.2, 30 mM phosphate buffer saline pH 7.4, 30 mM Tris.HCl buffer pH 7.5, 1.8% sodium chloride (saline solution), and 10% dextrose solution (D10W) resulting in 15 mM concentration of buffer, 0.9% concentration of sodium chloride, and 5% concentration of dextrose (D5W), respectively.
Upon addition of an ionic solvent, all the samples except the D5W sample became turbid. The vials were then vortexed at high speed (3×10 sec) and left to stand for 1 hour. Then they were vortexed again (3×10 sec) and a 1-ml aliquot from each vial was centrifuged at 13,000 rpm for 10 min. A small aliquot of the clear supernatant was diluted 25-fold with methanol and analyzed by HPLC (Conditions 3). The remaining concentrations of budiodarone in the samples were as follows: […]

[2] = Budiodarone concentration attainable in hyperconcentrated solutions (Examples 16-18); format: physicochemical
Procedure: The benzyl alcohol/budiodarone tartrate solution is viscous and therefore direct measurement of the budiodarone concentration is difficult. A better way to measure budiodarone concentration in the solution of benzyl alcohol and budiodarone oil or in a hyperconcentrated solution is by using an indirect method. In this example, the volume of the benzyl alcohol/budiodarone mixture was measured, which in turn allowed for the calculation of an accurate budiodarone concentration.
In each of five vials of accurately known volume, budiodarone tartrate (250 mg) and benzyl alcohol (91 μl) were mixed in order to make a 3/1 mixture (mol/mol). Then the solution was mixed thoroughly in order to make a clear solution. This was aided with the help of warming to 50° C. for 3 minutes in order to reduce the viscosity of the mixture. The weight of the vial containing the 3:1 mixture of benzyl alcohol/budiodarone was then recorded. Vial number 1 was filled with silicon oil of density d=0.964 and weighed again. The difference in weight provided the weight of the silicon oil added. This, divided by the density of the silicon oil provided the volume of silicon oil necessary to fill the vial. The difference with the known volume of the vial represents the volume of the benzyl alcohol/budiodarone mixture. To Vial numbers 2, 3, 4, and 5 was added 50, 100, 200, and 400 μl of water, respectively. The contents of the vials were then thoroughly mixed in order to get hyperconcentrated solutions of different volumes and different budiodarone concentrations. The volumes of these hyperconcentrations using silicon oil were measured as described above.
The same experiment as Example 16 was replicated, using mixtures of 5/1 ratio (250 mg of budiodarone tartrate and 152 μl of benzyl alcohol) and various volumes of water added. Using the same procedure as Example 16, a maximum calculated budiodarone concentration of 737 mg/ml and a maximum benzyl alcohol concentration of 45% (v/v) were found.
Similarly, the experiment in Example 16 was replicated, using a 1/1 mixture (250 mg of budiodarone tartrate and 30 μl of benzyl alcohol). A maximum calculated budiodarone concentration of 1,136 mg/ml and a maximum benzyl alcohol concentration of 13.6% (v/v) were found.

[3] = test system: sodium, potassium, and calcium ion channels; conditions: animals; cited from earlier work
[4] = test system: subjects with paroxysmal atrial fibrillation who had implanted pacemakers; conditions: cited from earlier work
[5] = cited from earlier work
[6] = test system: patients with paroxysmal atrial fibrillation (PAF); conditions: cited from earlier work
[7] = cited from earlier work; for tolerability: oral, up to 600 mg BID
[8] = 600 mg BID, Treatment Months 1-3, ITT
[9] = 600 mg BID, Treatment Months 1-3, mITT

CC[C@H](C)OC(=O)Cc1oc2ccccc2c1C(=O)c1cc(I)c(OCCN(CC)CC)c(I)c1 [budiodarone, (1S)-1-methylpropyl 2-(3-{4-[2-(diethylamino)ethoxy]-3,5-diiodobenzoyl}benzofuran-2-yl)acetate]
remaining concentration of budiodarone ([1]; 0.9% saline solution): < 1 mg/mL | remaining concentration of budiodarone ([1]; Acetate buffer pH5.2 (15 mM)): < 1 mg/mL | remaining concentration of budiodarone ([1]; D5W): 26.6 mg/mL | remaining concentration of budiodarone ([1]; Phosphate buffer saline pH 7.4 (15 mM)): < 1 mg/mL | remaining concentration of budiodarone ([1]; Tris.HCl buffer pH7.5 (15 mM)): < 1 mg/mL | maximum calculated budiodarone concentration ([2]; 1/1 mixture): 1,136 mg/ml | calculated maximum budiodarone concentration ([2]; 3:1 molar ratio of benzyl alcohol/budiodarone): 890 mg/mL | maximum calculated budiodarone concentration ([2]; 5/1 ratio): 737 mg/mL | atrial effects [3]: increased St-A and A-H intervals | inhibition of sodium, potassium, and calcium ion channels [3]: inhibition comparable with amiodarone | left and right atrial refractoriness [3]: increased left and right atrial refractoriness comparable with amiodarone | ventricular effects [3]: increased MAPD90 and QT-interval | mean AFB (SD) ([4]; 200 mg bid): 5.2 ± 4.2% | mean AFB (SD) ([4]; 400 mg bid): 5.2+5.2% | mean AFB (SD) ([4]; 600 mg bid): 2.8+3.4% | mean AFB (SD) ([4]; 800 mg bid): 1.5 ± 0.5% | decrease in AFB ([4]; at all doses (200 to 800 mg bid)): at least 70% | Mean episode duration (SD) ([4]; p2 (200 mg bid)): 1.7+2.5 h | relative reduction (RR) in AFB from baseline ([4]; p2 (200 mg bid)): 71.2 ± 31.3% | Mean episode duration (SD) ([4]; p3 (400 mg bid)): 0.6+0.7 h | relative reduction (RR) in AFB from baseline ([4]; p3 (400 mg bid)): 71.7 ± 20.6% | Mean episode duration (SD) ([4]; p4 (600 mg bid)): 0.1+0.2 h | relative reduction (RR) in AFB from baseline ([4]; p4 (600 mg bid)): 79.9 ± 26.4% | Mean episode duration (SD) ([4]; p5 (800 mg bid)): 0.5+0.7 h | relative reduction (RR) in AFB from baseline ([4]; p5 (800 mg bid)): 86.8 ± 9.8% | number of AF episodes ([4]; treatment periods and washout): increased initially | Mean episode duration (SD) ([4]; washout): 2.4+3.0 h | mean AFB (SD) ([4]; washout): 11.7+14.0% | PR interval, reduction from baseline ([5]; 200 mg bid): 16.6+23.9% | PR interval, reduction from baseline ([5]; 400 mg bid): 11.4+22.6% | PR interval, reduction from baseline ([5]; 600 mg bid): 27.0+32.1% | PR interval, reduction from baseline ([5]; 800 mg bid): 35.1 ± 30.9% | proarrhythmia, clinical hypothyroidism, or hyperthyroidism ([5]; 200 to 800 mg bid): no cases | serious AEs ([5]; 200 to 800 mg bid): no serious AEs related to study drug | tolerability ([5]; 200 to 800 mg bid): generally well tolerated | changes in HR, QRS, QT, or QTc ([5]; between baseline and dosing or washout): no significant changes | thyroid-stimulating hormone ([5]; three patients, outside the normal range): dose-responsive increases | PR interval, reduction from baseline ([5]; washout): 30.7 ± 24.3% | decrease in AFB ([6]; 200 mg BID, mITT population, not statistically significant): 10% | median percent reduction from baseline in AT/AF burden ([6]; 400 mg BID, Treatment Months 1-3, ITT population): 54% | median percent reduction from baseline in AT/AF burden ([6]; 400 mg BID, Treatment Months 1-3, mITT population): 54% | median percent reduction in AT/AF burden ([6]; 600 mg BID, Treatment Month 3, ITT population, listed as ATI-2042): 80% and 83% | median percent reduction in AT/AF burden ([6]; 600 mg BID, Treatment Month 3, mITT population): 83% | median percent reduction from baseline in AT/AF burden ([6]; 600 mg BID, Treatment Months 1-3, ITT population): 74% | median percent change from baseline in duration of AT/AF episodes [6, 8]: −51.3% | median percent change from baseline in the number of AT/AF episodes [6, 8]: −52.9% | median percent increase in the duration of NSR [6, 8]: 208.8% | median percent reduction from baseline in AT/AF burden ([6]; 600 mg BID, Treatment Months 1-3, mITT population): 75% | median percent change from baseline in duration of AT/AF episodes [6, 9]: −51.3% | median percent change from baseline in the number of AT/AF episodes [6, 9]: −62.1% | median percent increase in the duration of NSR [6, 9]: 241.8% | decrease in number of AT/AF episodes (median percent change from baseline, FIG. 12) ([6]; 600 mg BID, all three treatment months): more than 60% | decrease in duration of episodes (FIG. 12) ([6]; 600 mg BID, treatment month 1): more than 50% | decrease in duration of episodes (FIG. 12) ([6]; 600 mg BID, treatment month 2): more than 70% | decrease in duration of episodes (FIG. 12) ([6]; 600 mg BID, treatment month 3): ~70% | mean episode duration (FIG. 13) ([6]; 600 mg, down from nearly 24): less than 1 hour | median AF episode duration ([6]; 600 mg, month 3): 0 | reduction of number and duration of AF episodes below baseline (FIG. 12) ([6]; 600 mg): about 70% | patients a lot or completely satisfied with the test medication (Patient GCI Scale) ([6]; ITT population, dose group not stated): 60.0% | patients reporting a lot of improvement or complete relief (Patient GCI Scale) ([6]; dose group not stated): 46.7% | AFB after washout ([6]; each of the three dose groups, one-month washout period): returned to essentially the baseline values | creatinine ([7]; BUN unchanged): reversible elevation | ALT ([7]; appeared to be dose related): mild, reversible increase | tolerability [7]: safe and well tolerated | tolerability ([7]; listed as ATI-2042): well tolerated | tissue accumulation ([7]; slit lamp examination at the end of the treatment period): no evidence of budiodarone tissue accumulation | corneal deposits ([7]; slit-lamp examinations): No patient treated with ATI-2042 developed corneal deposits
